Measurements published in the supplement of paper PMC10307832.

Tests used:
Test in all cases: relative viability (nuclei count vs DMSO), 5 days (fraction); higher = more cells survive
[1] = compound: O=C(Nc1cccc(C(F)(F)F)c1)Nc1cc(S(=O)(=O)NC2CC2)ccc1-c1ccsc1 [AGI-6780] + CCNC(=O)c1noc(-c2cc(C(C)C)c(O)cc2O)c1-c1ccc(CN2CCOCC2)cc1 [Luminespib] (partner 0.01 µM)
Outline: (§1)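 Relative viability was taken as the ratio of nuclei in treated wells to nuclei in vehicle wells. Lung cancer cell lines in 1536-well plates received compounds by pin tool one day after seeding, either one drug alone or a fixed anchor-drug dose plus five library-drug doses (not always all listed) in √10 steps. Nuclei were counted on 4× images after 5 days of treatment, and values are medians of duplicate plates.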

[2] = compound: O=C(Nc1cccc(C(F)(F)F)c1)Nc1cc(S(=O)(=O)NC2CC2)ccc1-c1ccsc1 [AGI-6780] + COc1cc2c(Oc3ccc(NC(=O)C4(C(=O)Nc5ccc(F)cc5)CC4)cc3F)ccnc2cc1OCCCN1CCOCC1 [Foretinib] (partner 0.25 µM)
Outline: as §1

[3] = compound: O=C(Nc1cccc(C(F)(F)F)c1)Nc1cc(S(=O)(=O)NC2CC2)ccc1-c1ccsc1 [AGI-6780] + C[C@]1(O)C[C@@H](c2nc(-c3ccc4ccc(-c5ccccc5)nc4c3)c3c(N)nccn32)C1 [Linsitinib] (partner 1 µM)
Outline: as §1

[4] = compound: O=C(Nc1cccc(C(F)(F)F)c1)Nc1cc(S(=O)(=O)NC2CC2)ccc1-c1ccsc1 [AGI-6780] + CC1(C)CCC(c2ccc(Cl)cc2)=C(CN2CCN(c3ccc(C(=O)NS(=O)(=O)c4ccc(N[C@H](CCN5CCOCC5)CSc5ccccc5)c(S(=O)(=O)C(F)(F)F)c4)cc3)CC2)C1 [Navitoclax] (partner 0.5 µM)
Outline: as §1

| Cell Line | relative viability ([1]; first compound 0.08 µM) | relative viability ([1]; first compound 0.253 µM) | relative viability ([1]; first compound 0.8 µM) | relative viability ([1]; first compound 2.53 µM) | relative viability ([1]; first compound 8 µM) | relative viability ([2]; first compound 0.08 µM) | relative viability ([2]; first compound 0.253 µM) | relative viability ([2]; first compound 0.8 µM) | relative viability ([2]; first compound 2.53 µM) | relative viability ([2]; first compound 8 µM) | relative viability ([3]; first compound 0.08 µM) | relative viability ([3]; first compound 0.253 µM) | relative viability ([3]; first compound 0.8 µM) | relative viability ([3]; first compound 2.53 µM) | relative viability ([3]; first compound 8 µM) | relative viability ([4]; first compound 0.08 µM) | relative viability ([4]; first compound 0.253 µM) | relative viability ([4]; first compound 0.8 µM) | relative viability ([4]; first compound 2.53 µM) | relative viability ([4]; first compound 8 µM) |
| --- | --- | --- | --- | --- | --- | --- | --- | --- | --- | --- | --- | --- | --- | --- | --- | --- | --- | --- | --- | --- |
| NCI-H1993 | 0.747 | 0.913 | 0.705 | 0.642 | 0.857 | 0.682 | 0.838 | 0.851 | 0.621 | 0.771 | 0.808 | 0.801 | 0.765 | 0.703 | 0.682 | 1.1 | 0.986 | 0.903 | 0.667 | 1.14 |
| NCI-H2009 | 1.01 | 1.04 | 0.994 | 0.988 | 0.946 | 1.23 | 1.23 | 1.19 | 1.24 | 1.14 | 1.18 | 1.21 | 1.12 | 1.25 | 1.15 | 1.2 | 1.12 | 1.19 | 1.16 | 1.16 |
| NCI-H2023 | 0.877 | 0.688 | 0.602 | 0.553 | 0.686 | 0.984 | 0.823 | 0.829 | 0.777 | 0.825 | 0.711 | 0.677 | 0.697 | 0.648 | 0.698 | 1 | 1.06 | 1.02 | 0.989 | 0.919 |
| NCI-H2085 | 0.409 | 0.457 | 0.482 | 0.347 | 0.39 | 0.995 | 0.882 | 1.05 | 1.02 | 0.903 | 1.01 | 0.87 | 0.781 | 0.921 | 1.07 | 1.15 | 1.07 | 1.1 | 1.08 | 1.2 |
| NCI-H2087 | 0.203 | 0.141 | 0.181 | 0.155 | 0.175 | 1.04 | 1.24 | 1.17 | 1.17 | 1.08 | 1.06 | 0.891 | 0.85 | 0.984 | 0.883 | 1.08 | 0.986 | 0.98 | 0.982 | 0.97 |
| NCI-H2126 | 0.984 | 0.843 | 0.95 | 0.9 | 0.856 | 1.32 | 1.09 | 1.08 | 1.08 | 1.18 | 0.761 | 0.802 | 0.709 | 0.585 | 0.712 | 0.926 | 0.898 | 0.839 | 0.738 | 0.84 |
| NCI-H2228 | 0.128 | 0.15 | 0.148 | 0.114 | 0.113 | 1 | 0.767 | 0.598 | 0.709 | 0.853 | 0.8 | 1.07 | 0.604 | 0.754 | 0.629 | 0.753 | 1.04 | 0.675 | 0.856 | 1.08 |
| NCI-H2347 | 0.456 | 0.659 | 0.405 | 0.411 | 0.403 | 0.607 | 0.828 | 0.831 | 0.79 | 1.57 | 1.04 | 0.849 | 0.716 | 0.998 | 1.02 | 0.7 | 0.839 | 0.552 | 0.605 | 0.841 |
